Reference: patent US12528773B2, “Non-lysosomal glucosylceramidase inhibitors and uses thereof” (ALECTOS THERAPEUTICS INC., priority 2020, dated 2026)
pIC50: −log10 of the molar value.

How the values were obtained:
Assay type in all cases: biochemical
GBA2 [1] = biological target: T1, GBA2 (Homo sapiens (Human), UniProt Q9HCG7); experiment: Inhibition of GBA2 in cell lysate (4-methylumbelliferone glucopyranoside substrate); settings: HEK293T-overexpressing GBA2 cellular homogenate, pH 5.5; read-out: GBA2 IC50;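 also: homogenate of stably transfected HEK293T cells pre-treated with a GCase inhibitor, test compound preincubated 5 min at 37 °C, substrate reaction 20 min at 37 °C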
T1 sequence (Q9HCG7 whole entry): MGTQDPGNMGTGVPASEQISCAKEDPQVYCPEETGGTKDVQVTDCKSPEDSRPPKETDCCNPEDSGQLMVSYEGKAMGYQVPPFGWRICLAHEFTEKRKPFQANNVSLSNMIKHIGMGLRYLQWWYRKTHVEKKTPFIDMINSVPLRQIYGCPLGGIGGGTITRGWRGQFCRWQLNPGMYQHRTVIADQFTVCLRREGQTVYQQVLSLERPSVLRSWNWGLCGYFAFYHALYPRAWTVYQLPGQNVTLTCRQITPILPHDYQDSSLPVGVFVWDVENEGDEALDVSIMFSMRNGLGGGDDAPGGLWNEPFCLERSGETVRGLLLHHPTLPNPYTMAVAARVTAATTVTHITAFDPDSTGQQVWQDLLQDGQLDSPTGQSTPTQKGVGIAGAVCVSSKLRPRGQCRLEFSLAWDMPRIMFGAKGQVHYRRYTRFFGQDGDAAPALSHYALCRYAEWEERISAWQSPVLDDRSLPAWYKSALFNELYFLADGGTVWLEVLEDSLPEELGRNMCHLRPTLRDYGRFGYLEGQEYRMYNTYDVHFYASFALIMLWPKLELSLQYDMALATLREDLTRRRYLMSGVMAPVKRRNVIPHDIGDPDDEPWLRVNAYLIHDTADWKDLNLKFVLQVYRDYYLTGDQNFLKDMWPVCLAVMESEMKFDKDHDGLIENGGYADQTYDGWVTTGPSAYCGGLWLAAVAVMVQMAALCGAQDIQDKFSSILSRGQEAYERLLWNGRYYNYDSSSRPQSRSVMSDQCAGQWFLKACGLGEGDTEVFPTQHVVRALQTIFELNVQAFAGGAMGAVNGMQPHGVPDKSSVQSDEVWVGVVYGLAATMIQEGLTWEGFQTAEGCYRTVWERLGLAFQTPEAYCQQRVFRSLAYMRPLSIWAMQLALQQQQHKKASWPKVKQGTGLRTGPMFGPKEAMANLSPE

GBA2 [2] = biological target: T1, GBA2; experiment: Binding specificity for GBA2 over other molecules, Ki or IC50 ratio
From the text: In some embodiments, one or more of the compounds according to the invention may specifically bind a GBA2. In alternative embodiments, one or more of the compounds according to the invention may specifically bind the active site of a GBA2. […] In alternative embodiments, one or more of the compounds according to the invention may specifically bind the human non-lysosomal glucosylceramidase (GBA2) over the human lysosomal glucosylceramidase (GCase) and/or the human cytosolic glucosylceramidase (GBA3). In alternative embodiments, one or more of the compounds according to the invention may specifically bind the human non-lysosomal glucosylceramidase (GBA2) over the human glucosylceramide synthase (GCS). In alternative embodiments, one or more of the compounds according to the invention may specifically bind the human non-lysosomal glucosylceramidase (GBA2) over an intestinal alpha-glucosidase, where the intestinal alpha-glucosidase may be a sucrase-isomaltase or a maltase-glucoamylase.

[3] = system: rat intestinal alpha-glucosidases; experiment: Inhibition of rat intestinal alpha-glucosidases (rat intestinal lysate, glucose detection); settings: compound concentration 25 μM, sucrose as substrate
Procedure, shortened: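 Rat intestinal acetone-powder lysate in citrate-phosphate pH 6.0 with 50 or 25 μM compound, 3.3% DMSO, 37 °C, 20 min. Sucrose reactions used 2.1 mg/mL lysate and 40 mM sucrose; maltose reactions 0.69 mg/mL lysate and 10 mM maltose. Glucose was detected by Amplex Red fluorescence at 10 min, or by hexokinase absorbance at 340 nm, relative to no-compound wells.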

pIC50 (GBA2 [1])	binding specificity, IC50(other molecule)/IC50(GBA2) or Ki ratio (GBA2 [2])	Compound	rat α-glu. (% inhib.) [3] [%]
> 7.00	enhanced binding specificity	Cc1ccccc1N1CC[C@H](CN2C[C@@H](O)[C@H](O)[C@@H](O)C2)C1 [Example 18, (3S,4R,5R)-1-(((R)-1-(o-tolyl)pyrrolidin-3-yl)methyl)piperidine-3,4,5-triol]	0
> 7.00	enhanced binding specificity	O[C@H]1[C@H](O)CN(C[C@H]2CCCN(c3cccnc3C(F)(F)F)C2)C[C@@H]1O [Example 31, (3S,4R,5R)-1-(((R)-1-(2-(trifluoromethyl)pyridin-3-yl)piperidin-3-yl)methyl)piperidine-3,4,5-triol]	0

Compound	pIC50 (GBA2 [1])	binding specificity, IC50(other molecule)/IC50(GBA2) or Ki ratio (GBA2 [2])	rat α-glu. (% inhib.) [3] [%]
O[C@H]1[C@H](O)CN(CCc2c(F)cc(OCC3CC3)cc2F)C[C@@H]1O [Example 9, (3S,4r,5R)-1-(4-(cyclopropylmethoxy)-2,6-difluorophenethyl)piperidine-3,4,5-triol]	> 7.00	enhanced binding specificity	0
